Results published in ChEMBL document CHEMBL5303573, “Mapping human microbiome drug metabolism by gut bacteria and their genes” (Nature, 2019).

What was measured:
[1] = The drug is tested on Collinsella aerofaciens strain: ATCC25986 for biotransformation. The drug concentrations were measured before and after a 12-h incubation by liquid-chromatography-coupled mass spectrometry (LC–MS); settings: 2 µM
[2] = The drug is tested on Collinsella intestinalis strain: DSM13280 for biotransformation. The drug concentrations were measured before and after a 12-h incubation by liquid-chromatography-coupled mass spectrometry (LC–MS); settings: 2 µM
[3] = The drug is tested on Bacteroides cellulosilyticus strain: DSM14838 for biotransformation. The drug concentrations were measured before and after a 12-h incubation by liquid-chromatography-coupled mass spectrometry (LC–MS); settings: 2 µM
[4] = The drug is tested on Bacteroides dorei strain: DSM17855 for biotransformation. The drug concentrations were measured before and after a 12-h incubation by liquid-chromatography-coupled mass spectrometry (LC–MS); settings: phocaeicola dorei, 2 µM
[5] = The drug is tested on Bacteroides fragilis strain: HMW610 for biotransformation. The drug concentrations were measured before and after a 12-h incubation by liquid-chromatography-coupled mass spectrometry (LC–MS); settings: 2 µM
[6] = The drug is tested on Odoribacter splanchnicus strain: fecal isolate for biotransformation. The drug concentrations were measured before and after a 12-h incubation by liquid-chromatography-coupled mass spectrometry (LC–MS); settings: 2 µM
[7] = The drug is tested on Blautia hansenii strain: DSM20583 for biotransformation. The drug concentrations were measured before and after a 12-h incubation by liquid-chromatography-coupled mass spectrometry (LC–MS); settings: 2 µM
[8] = The drug is tested on Clostridium scindens strain: ATCC35704 for biotransformation. The drug concentrations were measured before and after a 12-h incubation by liquid-chromatography-coupled mass spectrometry (LC–MS); settings: 2 µM
[9] = The drug is tested on Coprococcus comes strain: ATCC27758 for biotransformation. The drug concentrations were measured before and after a 12-h incubation by liquid-chromatography-coupled mass spectrometry (LC–MS); assay type: ADME; design: dose 2 uM, timepoint 0 vs 12 hours; settings: 2 µM
[10] = The drug is tested on Enterococcus faecalis strain: V583 for biotransformation. The drug concentrations were measured before and after a 12-h incubation by liquid-chromatography-coupled mass spectrometry (LC–MS); settings: 2 µM
[11] = The drug is tested on Eubacterium hallii strain: DSM3353 for biotransformation. The drug concentrations were measured before and after a 12-h incubation by liquid-chromatography-coupled mass spectrometry (LC–MS); settings: anaerobutyricum hallii, 2 µM
[12] = The drug is tested on Eubacterium rectale strain: ATCC33656 for biotransformation. The drug concentrations were measured before and after a 12-h incubation by liquid-chromatography-coupled mass spectrometry (LC–MS); settings: agathobacter rectalis, 2 µM
[13] = The drug is tested on Eubacterium ventriosum strain: ATCC27560 for biotransformation. The drug concentrations were measured before and after a 12-h incubation by liquid-chromatography-coupled mass spectrometry (LC–MS); assay type: ADME; design: dose 2 uM, timepoint 0 vs 12 hours; settings: 2 µM
[14] = The drug is tested on Ruminococcus lactaris strain: ATCC29176 for biotransformation. The drug concentrations were measured before and after a 12-h incubation by liquid-chromatography-coupled mass spectrometry (LC–MS); settings: 2 µM
[15] = The drug is tested on Subdoligranulum variabile strain: DSM15176 for biotransformation. The drug concentrations were measured before and after a 12-h incubation by liquid-chromatography-coupled mass spectrometry (LC–MS); settings: 2 µM
[16] = The drug is tested on Escherichia coli strain: BW25113 for biotransformation. The drug concentrations were measured before and after a 12-h incubation by liquid-chromatography-coupled mass spectrometry (LC–MS); settings: 2 µM
[17] = segatella copri, 12 h, 2 µM
Description: The drug is tested on Prevotella copri strain: DSM18205 for biotransformation. The drug concentrations were measured before and after a 12-h incubation by liquid-chromatography-coupled mass spectrometry (LC–MS)

[18] = enterocloster bolteae, 12 h, 2 µM
Description: The drug is tested on Clostridium bolteae strain: ATCCBAA-613 for biotransformation. The drug concentrations were measured before and after a 12-h incubation by liquid-chromatography-coupled mass spectrometry (LC–MS)

[19] = The drug is tested on Bacteroides pectinophilus strain: ATCC43243 for biotransformation. The drug concentrations were measured before and after a 12-h incubation by liquid-chromatography-coupled mass spectrometry (LC–MS); settings: 2 µM
[20] = The drug is tested on Bacteroides fragilis strain: ATCC43859 for biotransformation. The drug concentrations were measured before and after a 12-h incubation by liquid-chromatography-coupled mass spectrometry (LC–MS); settings: 2 µM

SMILES	Bacterial Biotransformation [1]	Bacterial Biotransformation [2]	Bacterial Biotransformation [3]	Bacterial Biotransformation [4]	Bacterial Biotransformation [5]	Bacterial Biotransformation [6]	Bacterial Biotransformation [7]	Bacterial Biotransformation [8]	Bacterial Biotransformation [9]	Bacterial Biotransformation [10]	Bacterial Biotransformation [11]	Bacterial Biotransformation [12]	Bacterial Biotransformation [13]	Bacterial Biotransformation [14]	Bacterial Biotransformation [15]	Bacterial Biotransformation [16]	Bacterial Biotransformation [17]	Bacterial Biotransformation [18]	Bacterial Biotransformation [19]	Bacterial Biotransformation [20]
CN(C)CCC=C1c2ccccc2COc2ccccc21 [DOXEPIN]	Compound NOT metabolized	Compound NOT metabolized	Compound NOT metabolized	Compound NOT metabolized	Compound NOT metabolized	Compound NOT metabolized	Compound NOT metabolized	Compound NOT metabolized	Compound NOT metabolized	Compound NOT metabolized	Compound NOT metabolized	Compound NOT metabolized	Compound NOT metabolized	Compound NOT metabolized	Compound NOT metabolized	Compound NOT metabolized	Compound NOT metabolized	Compound NOT metabolized	–	–
CCOC(=O)[C@H](CCc1ccccc1)N[C@@H](C)C(=O)N1CCC[C@H]1C(=O)O.O=C(O)/C=C\C(=O)O [ENALAPRIL MALEATE]	Compound NOT metabolized	Compound NOT metabolized	Compound NOT metabolized	–	–	Compound NOT metabolized	Compound metabolized	Compound NOT metabolized	Compound NOT metabolized	Compound NOT metabolized	Compound NOT metabolized	Compound NOT metabolized	Compound NOT metabolized	Compound NOT metabolized	Compound NOT metabolized	Compound NOT metabolized	Compound NOT metabolized	Compound NOT metabolized	Compound NOT metabolized	–
CCN(CC)C(C)CN1c2ccccc2Sc2ccccc21 (stereo not given) [ETHOPROPAZINE]	Compound NOT metabolized	Compound NOT metabolized	Compound NOT metabolized	Compound metabolized	Compound NOT metabolized	Compound metabolized	Compound metabolized	Compound NOT metabolized	Compound NOT metabolized	Compound NOT metabolized	Compound NOT metabolized	Compound NOT metabolized	Compound NOT metabolized	Compound NOT metabolized	Compound NOT metabolized	Compound metabolized	–	Compound NOT metabolized	Compound metabolized	–
CC(C)c1c(CN(C)C(C)Cc2ccccc2)n(C)n(-c2ccccc2)c1=O (stereo not given) [FAMPROFAZONE]	Compound metabolized	–	Compound metabolized	Compound metabolized	Compound metabolized	Compound metabolized	Compound metabolized	Compound NOT metabolized	Compound NOT metabolized	Compound NOT metabolized	Compound NOT metabolized	Compound NOT metabolized	Compound NOT metabolized	Compound NOT metabolized	Compound metabolized	Compound NOT metabolized	Compound metabolized	Compound metabolized	Compound NOT metabolized	–
COc1ccccc1N1CCN(CC(O)COc2cccc3ccccc23)CC1 (stereo not given) [NAFTOPIDIL]	Compound NOT metabolized	Compound NOT metabolized	Compound NOT metabolized	Compound NOT metabolized	Compound metabolized	Compound NOT metabolized	Compound NOT metabolized	Compound NOT metabolized	–	Compound NOT metabolized	Compound NOT metabolized	Compound NOT metabolized	Compound NOT metabolized	Compound NOT metabolized	Compound NOT metabolized	Compound NOT metabolized	Compound NOT metabolized	Compound NOT metabolized	Compound NOT metabolized	–
CCN(CC)CC#CCOC(=O)C(O)(c1ccccc1)C1CCCCC1.Cl (stereo not given) [OXYBUTYNIN CHLORIDE]	Compound NOT metabolized	Compound NOT metabolized	Compound NOT metabolized	Compound metabolized	Compound metabolized	Compound metabolized	Compound metabolized	Compound NOT metabolized	–	Compound metabolized	Compound NOT metabolized	–	Compound metabolized	Compound NOT metabolized	Compound NOT metabolized	Compound NOT metabolized	–	–	–	–

Now from value to molecule:

Bacterial Biotransformation [1]	Bacterial Biotransformation [2]	Bacterial Biotransformation [3]	Bacterial Biotransformation [4]	Bacterial Biotransformation [5]	Bacterial Biotransformation [6]	Bacterial Biotransformation [7]	Bacterial Biotransformation [8]	Bacterial Biotransformation [9]	Bacterial Biotransformation [10]	Bacterial Biotransformation [11]	Bacterial Biotransformation [12]	Bacterial Biotransformation [13]	Bacterial Biotransformation [14]	Bacterial Biotransformation [15]	Bacterial Biotransformation [16]	Bacterial Biotransformation [17]	Bacterial Biotransformation [18]	Bacterial Biotransformation [19]	Bacterial Biotransformation [20]	SMILES
–	Compound NOT metabolized	Compound NOT metabolized	Compound metabolized	Compound metabolized	Compound metabolized	Compound metabolized	Compound NOT metabolized	Compound NOT metabolized	Compound NOT metabolized	Compound NOT metabolized	Compound NOT metabolized	Compound NOT metabolized	–	Compound NOT metabolized	Compound NOT metabolized	–	Compound NOT metabolized	Compound NOT metabolized	–	COC(=O)Nc1nc2ccc(C(=O)c3ccccc3)cc2[nH]1 [MEBENDAZOLE]
Compound NOT metabolized	Compound NOT metabolized	Compound NOT metabolized	Compound NOT metabolized	Compound NOT metabolized	Compound NOT metabolized	–	Compound NOT metabolized	Compound NOT metabolized	Compound NOT metabolized	Compound NOT metabolized	Compound NOT metabolized	Compound NOT metabolized	Compound NOT metabolized	Compound NOT metabolized	Compound NOT metabolized	Compound NOT metabolized	Compound NOT metabolized	Compound NOT metabolized	Compound NOT metabolized	CCN(CC)CCNC(=O)c1cc(Cl)c(N)cc1OC [METOCLOPRAMIDE]
Compound NOT metabolized	Compound NOT metabolized	Compound NOT metabolized	–	Compound NOT metabolized	Compound NOT metabolized	Compound NOT metabolized	Compound NOT metabolized	Compound NOT metabolized	Compound NOT metabolized	–	Compound NOT metabolized	Compound NOT metabolized	Compound NOT metabolized	Compound NOT metabolized	Compound NOT metabolized	Compound NOT metabolized	Compound NOT metabolized	Compound NOT metabolized	–	CCc1nn(CCCN2CCN(c3cccc(Cl)c3)CC2)c(=O)n1CCOc1ccccc1 [NEFAZODONE]
